Results on 3 molecules are retold here after patent US8818734B1, “Peptide ligands for sperm DNA fragmentation assay” (priority 2011, dated 2014).

Type in all cases: cell-based
The test system of data set [1] is human spermatozoa. Kind of data set: Induction of single-strand DNA damage with H2O2: DW1 staining of ethanol-fixed slides, SCDt, alkaline comet assay. The following applies: 0.03 and 0.3% H2O2, 30 min, p<0.05.
Procedure: Five human sperm samples were washed in PBS (220 g, 10 min), diluted to a concentration of 10×10^6 spermatozoa/ml in PBS (Fischer Scientific International, Pittsburgh, Pa., USA) and divided into three aliquots of 200 μl each, allowing a control group to be compared with the treated cells. To induce single-strand DNA damage (Yamamoto, 1969), spermatozoa were incubated with 0.03 and 0.3% H2O2 (Sigma, St Louis, Mo., USA) for 30 min at room temperature.
(§1) Control, H2O2 (0.03% and 0.3%) and Bleomycin (2 and 4 mg/ml)-treated sperm samples were used for this purpose. Ten fields per sample were captured as described above in the Fluorescence microscopy evaluation and image capture section using a fixed exposure time. A total of 300 sperm cells per slide were analysed.
One way-ANOVA and Dunnett's Test for multiple comparisons with a single control were used to detect significant differences in the frequencies of SDF calculated by SCDt and alkaline comet assay between the control and each one of the treatments, 0.03% and 0.3% H2O2.
Data set [2] concerns human spermatozoa. The data set is described as follows: Induction of double-strand DNA damage with Bleomycin: DW1 staining of ethanol-fixed slides, SCDt, neutral comet assay. Particulars: 2 and 4 mg/ml Bleomycin, 3 h, 37° C., p<0.05.
Procedure: Five human sperm samples were washed in PBS (220 g, 10 min), diluted to a concentration of 10×10^6 spermatozoa/ml in PBS (Fischer Scientific International, Pittsburgh, Pa., USA) and divided into three aliquots of 200 μl each, allowing a control group to be compared with the treated cells. To induce double-strand DNA damage, spermatozoa were incubated with 2 and 4 mg/ml of Bleomycin (Sigma, St Louis, Mo., USA) for 3 h at 37° C.
as §1
A Mann-Whitney U test was used to detect significant differences in the frequencies of SDF calculated by SCDt and neutral comet assay between the control and each one of the treatments, 2 mg/ml and 4 mg/ml of bleomycin.
The test system of another data set is spermatozoa. Kind of data set: Access of TAT-modified DW1 to the cell interior. Particulars: DW1 modified to include TAT peptide YGRKKRRQRRRG
From the text:
However, it is possible that different TAT configurations or the use of an alternative protein transduction domain might allow penetration into the cell interior. […] It is still possible that the peptide could be used to choose spermatozoa for fertilization using ICSI following removal of membranes using detergent. Previous studies have shown that sperm treated in this way remain fertilizations competent (Kasai et al., 1999). […] Electroporation is known not to inhibit sperm viability and ICSI procedures.

Consider `OO` [H2O2, Hydrogen Peroxide], for which the “frequency of sperm cells with fragmented DNA by SCDt (SCDt-SDF) and alkaline comet assay (ssSDF)” value in the data set on human spermatozoa [1] is “significant increase”. Consider Bleomycin, for which the “frequency of sperm cells with fragmented DNA by SCDt (SCDt-SDF) and neutral comet assay (dsSDF)” value in the data set with human spermatozoa [2] is “significantly increased”. As to “DW1 (SEQ ID NO:1) to include a TAT peptide: DW1 modified to include a TAT peptide (YGRKKRRQRRRG), a transduction sequence (GSRAHSSHLKSKKGQSTSRHKKYGRKKRRQRRRG; listed as Homo sapiens)”, the “access to the cell interior” value in the data set on spermatozoa was “failed to improve access to the cell interior”.
